Source: patent publication US20090012172A1, “Cosmetic/pharmaceutical compositions comprising retinoids and anti-irritants and treatment of keratinization disorders therewith” (GALDERMA RESEARCH & DEVELOPMENT, priority 2005, published 2009)
Entries after “also recorded” stand apart in the source; their conditions may differ.

How the values were obtained:
[1] = test system: ear of the BALB/c mouse; test: Tolerance study: anti-irritant in preventive treatment before topical Differin gel, ear thickness (edema); assay type: in vivo; settings: anti-irritant applied before Differin gel
Description: The goal of the present study is to compare the irritant power of a reference gel, comprising 0.1% adapalene, when this treatment is preceded or not preceded by treatment with an anti-irritant.
(§1) The treatment consists of a daily topical application (20 μl) of anti-irritant, formulated in an aqueous/alcoholic vehicle (50% ethanol and 50% water by volume), on the internal face of the right ear of BALB/c mice divided into 15 groups (female mice approximately 9 weeks old), followed by a topical application (20 μl) of Differin® gel (reference gel comprising 0.1% adapalene) at the rate of one application of each formulation per day for 6 days.
(§2) Evaluation is carried out by measurements of the thickness of the ear by means of the Oditest and by clinical observation of the animals from the 2nd to 19th day.

[2] = test system: skin of the back of the Rhino mouse (comedones); test: Comedolytic activity of Differin gel alone or preceded by anti-irritant on the Rhino mouse; assay type: in vivo, RHINO FVB/N RJ-hr (Rhino) mouse
Description: The goal of the present study is to compare the comedolytic activity of Differin® gel (reference gel comprising 0.1% adapalene) whether this treatment is preceded or not preceded by a treatment with an anti-irritant.
The treatment consists of a daily topical application of an aqueous/alcoholic vehicle (ethanol/water 50:50) comprising the anti-irritant potassium salt of 18β-glycyrrhetinic acid, followed 30 minutes later by an application of Differin® gel, on the skin of the back of the RHINO FVB/N RJ-hr^th (Rhino) mouse for 18 days.

[3] = test system: ear of the BALB/c mouse; test: Study of tolerance of the formulation of Example 4 (non-split treatment), ear thickness; assay type: in vivo; settings: adapalene and anti-irritant in the same formulation
Description: as §1, §2
A study of tolerance is carried out according to the protocol of Example 2 with the formulation of Example 4. However, the present case, in contrast to Example 2, relates to a treatment which is not split since the adapalene and the anti-irritant are present in the same formulation.

CC1(C)[C@@H](O)CC[C@]2(C)[C@H]3C(=O)C=C4[C@@H]5C[C@@](C)(C(=O)O)CC[C@]5(C)CC[C@@]4(C)[C@]3(C)CC[C@@H]12 [Enoxolone, 18β-Glycyrrhetinic acid]
effect on the irritation caused by Differin gel (in words) [1]: virtually no effect
effect on the irritation caused by Differin gel (in words) ([1]; listed as enoxolone): does not have an effect on the irritation due to retinoids

CC1(C)[C@@H](O)CC[C@]2(C)[C@H]3C(=O)C=C4[C@@H]5C[C@@](C)(C(=O)[O-])CC[C@]5(C)CC[C@@]4(C)[C@]3(C)CC[C@@H]12.[K+] [Potassium salt of 18β-glycyrrhetinic acid]
effect on the irritation caused by Differin gel (in words) [1]: effective in reducing the irritation due to adapalene; also recorded: significantly reduces the irritation
number of comedones per centimeter ([2]; back of Rhino mice after 18 days of daily topical treatment): statistically equivalent to that of groups 1 and 3
effect on the comedolytic activity of Differin gel (in words) ([2]; split treatment, anti-irritant 30 minutes before Differin gel, 18 days): does not reduce the comedolytic activity
anti-irritant effect (in words) [3]: appears to be an effective anti-irritant
